Laboratory results reported in PubChem BioAssay AID248 (DTP/NCI, 2004).
Several values for one entry are separate records, joined by “and”; a condition that tells them apart may be missing. Equal values may be shown once. Toxic doses and inconclusive results are not listed. No stated cut-off is given here; in the data, active means T/C of 150% or more; inactive means T/C below 125%.

Tested on: L1210 leukemia ip in BDF1 mice, survival T/C
Test: NCI In Vivo Anticancer Drug Screen. Data for tumor model L1210 Leukemia (intraperitoneal) in B6D2F1 (BDF1) mice
Details: endpoint: mean survival time, higher = longer survival
Procedure, shortened: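 Each compound was tested against a transplantable tumor grown in mice. The endpoint was survival, with treated animals benchmarked against vehicle controls as a simple ratio.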

[1] = dose: 50.0 mg/kg/injection, schedule: Q01DX009 (ip), vehicle: Klucel (hydroxypropylcellulose) (HPC)
[2] = dose: 50.0 mg/kg/injection, schedule: Q04DX002 (ip), vehicle: Klucel (hydroxypropylcellulose) (HPC)
[3] = dose: 100.0 mg/kg/injection, schedule: Q04DX002 (ip), vehicle: Klucel (hydroxypropylcellulose) (HPC)
[4] = dose: 25.0 mg/kg/injection, schedule: Q01DX009 (ip), vehicle: saline with Tween-80
[5] = dose: 50.0 mg/kg/injection, schedule: Q01DX009 (ip), vehicle: saline with Tween-80
[6] = dose: 100.0 mg/kg/injection, schedule: Q01DX009 (ip), vehicle: saline with Tween-80
[7] = dose: 400.0 mg/kg/injection, schedule: Q01DX009 (ip), vehicle: saline with Tween-80
[8] = dose: 100.0 mg/kg/injection, schedule: Q01DX001 (ip), vehicle: Klucel (hydroxypropylcellulose) (HPC)
[9] = dose: 100.0 mg/kg/injection, schedule: Q04DX003 (ip), vehicle: Klucel (hydroxypropylcellulose) (HPC)
[10] = dose: 200.0 mg/kg/injection, schedule: Q01DX001 (ip), vehicle: Klucel (hydroxypropylcellulose) (HPC)
[11] = dose: 200.0 mg/kg/injection, schedule: Q04DX003 (ip), vehicle: Klucel (hydroxypropylcellulose) (HPC)
[12] = dose: 400.0 mg/kg/injection, schedule: Q01DX001 (ip), vehicle: Klucel (hydroxypropylcellulose) (HPC)
[13] = dose: 400.0 mg/kg/injection, schedule: Q04DX003 (ip), vehicle: Klucel (hydroxypropylcellulose) (HPC)
[14] = dose: 100.0 mg/kg/injection, schedule: Q04DX003 (ip), vehicle: saline with Tween-80
[15] = dose: 200.0 mg/kg/injection, schedule: Q01DX009 (ip), vehicle: saline with Tween-80
[16] = dose: 200.0 mg/kg/injection, schedule: Q04DX003 (ip), vehicle: saline with Tween-80
[17] = dose: 12.5 mg/kg/injection, schedule: Q04DX003 (ip), vehicle: saline with Tween-80
[18] = dose: 25.0 mg/kg/injection, schedule: Q04DX003 (ip), vehicle: saline with Tween-80
[19] = dose: 12.5 mg/kg/injection, schedule: Q01DX009 (ip), vehicle: saline with Tween-80
[20] = dose: 100.0 mg/kg/injection, schedule: Q01DX001 (ip), vehicle: saline
[21] = dose: 200.0 mg/kg/injection, schedule: Q01DX001 (ip), vehicle: saline
[22] = dose: 400.0 mg/kg/injection, schedule: Q01DX001 (ip), vehicle: saline
[23] = dose: 400.0 mg/kg/injection, schedule: Q04DX003 (ip), vehicle: saline with Tween-80
[24] = dose: 100.0 mg/kg/injection, schedule: Q04DX002 (ip), vehicle: saline with Tween-80
[25] = dose: 200.0 mg/kg/injection, schedule: Q04DX002 (ip), vehicle: saline with Tween-80
[26] = dose: 400.0 mg/kg/injection, schedule: Q04DX002 (ip), vehicle: saline with Tween-80

Measured: T/C

Cc1nn(CCO)c(C)c1N=[N+]([O-])c1c(C)nn(CCO)c1C
inactive: dose: 25.0 mg/kg/injection, schedule: Q01DX009 (ip), vehicle: Klucel (hydroxypropylcellulose) (HPC) 93 % of control and 98 % of control | dose: 30.0 mg/kg/injection, schedule: Q01DX009 (ip), vehicle: saline 95 % of control | [1] 95 % of control and 107 % of control | [2] 101 % of control | [3] 96 % of control | dose: 200.0 mg/kg/injection, schedule: Q04DX002 (ip), vehicle: Klucel (hydroxypropylcellulose) (HPC) 96 % of control

O=C(NCCNC(c1ccccc1)C(NCCNC(=O)c1ccccc1)c1ccccc1)c1ccccc1 (stereo not drawn)
inactive: [4] 94 % of control | [5] 89 % of control | [6] 97 % of control and 89 % of control | [7] 89 % of control

c1ccc(Cc2[nH]nc(-c3ccccc3)c2N=Nc2ccccc2)cc1
inactive: [8] 94 % of control | [9] 103 % of control | [10] 94 % of control | [11] 103 % of control | [12] 91 % of control | [13] 100 % of control

Cc1cc(C)cc(OC(=S)N(C)C)c1
inactive: [8] 93 % of control | [10] 98 % of control | [12] 95 % of control

CCSCCOP(=O)(N(C)C)N(C)C
inactive: dose: 25.0 mg/kg/injection, schedule: Q04DX002 (ip), vehicle: Klucel (hydroxypropylcellulose) (HPC) 96 % of control | [2] 96 % of control | [3] 93 % of control and 98 % of control

CSc1ncc(C#N)c(N)n1
inactive: [5] 98 % of control | [6] 93 % of control | [14] 97 % of control | [15] 104 % of control | [16] 94 % of control

C(=C\[P+](Cc1ccccc1)(c1ccccc1)c1ccccc1)/c1ccccc1
inactive: [17] 100 % of control | [18] 92 % of control

CN(C)N=Nc1ccccc1C(=O)O
inactive: dose: 0.78 mg/kg/injection, schedule: Q01DX009 (ip), vehicle: Klucel (hydroxypropylcellulose) (HPC) 105 % of control | dose: 1.56 mg/kg/injection, schedule: Q01DX009 (ip), vehicle: Klucel (hydroxypropylcellulose) (HPC) 97 % of control | dose: 3.12 mg/kg/injection, schedule: Q01DX009 (ip), vehicle: Klucel (hydroxypropylcellulose) (HPC) 103 % of control | dose: 6.25 mg/kg/injection, schedule: Q01DX009 (ip), vehicle: Klucel (hydroxypropylcellulose) (HPC) 103 % of control | dose: 11.0 mg/kg/injection, schedule: Q01DX009 (ip), vehicle: saline with Tween-80 109 % of control | dose: 12.5 mg/kg/injection, schedule: Q01DX001 (ip), vehicle: saline with Tween-80 95 % of control | [19] 123 % of control | [17] 101 % of control | dose: 17.0 mg/kg/injection, schedule: Q01DX009 (ip), vehicle: saline with Tween-80 107 % of control | dose: 25.0 mg/kg/injection, schedule: Q01DX001 (ip), vehicle: saline with Tween-80 98 % of control | [4] 115 % of control | dose: 25.0 mg/kg/injection, schedule: Q04DX003 (ip), vehicle: other 115 % of control | [18] 104 % of control | dose: 37.0 mg/kg/injection, schedule: Q01DX009 (ip), vehicle: saline with Tween-80 91 % of control | dose: 50.0 mg/kg/injection, schedule: Q01DX001 (ip), vehicle: saline with Tween-80 101 % of control | dose: 50.0 mg/kg/injection, schedule: Q04DX003 (ip), vehicle: other 105 % of control | dose: 50.0 mg/kg/injection, schedule: Q04DX003 (ip), vehicle: saline with Tween-80 103 % of control | dose: 100.0 mg/kg/injection, schedule: Q04DX003 (ip), vehicle: other 111 % of control | dose: 200.0 mg/kg/injection, schedule: Q04DX003 (ip), vehicle: other 113 % of control | dose: 400.0 mg/kg/injection, schedule: Q04DX003 (ip), vehicle: other 100 % of control

CC(C)(NC(=O)C(F)(F)F)C(=O)O
inactive: dose: 100.0 mg/kg/injection, schedule: Q04DX003 (ip), vehicle: saline 100 % of control | dose: 200.0 mg/kg/injection, schedule: Q04DX003 (ip), vehicle: saline 87 % of control | dose: 400.0 mg/kg/injection, schedule: Q04DX003 (ip), vehicle: saline 95 % of control

Clc1ccccc1C(c1ccc(I)cc1)C(Cl)Cl (stereo not drawn)
inactive: [20] 101 % of control | [21] 93 % of control | [22] 104 % of control

Cc1ccc(S(=O)(=O)Nc2cc(Cl)c(I)cc2Cl)cc1
inactive: [16] 90 % of control | [23] 101 % of control

C=CCNc1ccnc(SC)n1
inactive: dose: 100.0 mg/kg/injection, schedule: Q01DX001 (ip), vehicle: gum acacia 94 % of control | dose: 200.0 mg/kg/injection, schedule: Q01DX001 (ip), vehicle: gum acacia 103 % of control

O=C(CCc1ccccc1)NC(=S)Nc1ccc(I)cc1
inactive: [19] 94 % of control and 90 % of control | dose: 100.0 mg/kg/injection, schedule: Q01DX001 (ip), vehicle: saline with Tween-80 106 % of control | [24] 104 % of control | [14] 100 % of control | dose: 200.0 mg/kg/injection, schedule: Q01DX001 (ip), vehicle: saline with Tween-80 103 % of control | [25] 93 % of control and 101 % of control | [16] 97 % of control | dose: 400.0 mg/kg/injection, schedule: Q01DX001 (ip), vehicle: saline with Tween-80 91 % of control | [7] 95 % of control and 99 % of control | [26] 101 % of control and 90 % of control | [23] 96 % of control

CCC(C)C(NC(C)=O)C(=O)O (stereo not drawn)
inactive: [24] 102 % of control | [9] 88 % of control | [25] 94 % of control | [11] 91 % of control | [26] 102 % of control | [13] 89 % of control

C/C=C/CCC(C)=O
inactive: [14] 99 % of control | [16] 100 % of control | [23] 108 % of control

O=S1(=O)CCCO1
inactive: dose: 100.0 mg/kg/injection, schedule: Q01DX009 (ip), vehicle: other 103 % of control | dose: 200.0 mg/kg/injection, schedule: Q01DX009 (ip), vehicle: other 109 % of control

CC(=O)NCC(S)c1ccc(Cl)cc1 (stereo not drawn)
inactive: [6] 103 % of control | [14] 112 % of control | [15] 103 % of control | [16] 93 % of control | [7] 103 % of control | [23] 88 % of control

CCCCn1cnc2c(=O)n(C)c(=O)n(C)c21
inactive: [20] 96 % of control | [21] 94 % of control

O=[N+]([O-])c1cc(Cl)cc2c1-c1ccc(Cl)cc1C2
inactive: [9] 98 % of control | [11] 98 % of control | [13] 98 % of control

O=C(c1ccc(OC(F)F)cc1)N1CCCCC1
inactive: [9] 94 % of control | [11] 93 % of control | [13] 96 % of control

CC(C)=CCC(C)c1ccccn1 (stereo not drawn)
inactive: [20] 100 % of control | [21] 100 % of control | [22] 97 % of control

O=c1[nH][nH]c2ccccc12
inactive: dose: 31.2 mg/kg/injection, schedule: Q01DX Z (ip), vehicle: other 88 % of control | dose: 125.0 mg/kg/injection, schedule: Q01DX Z (ip), vehicle: other 88 % of control | dose: 250.0 mg/kg/injection, schedule: Q01DX Z (ip), vehicle: other 92 % of control

COc1c(NS(=O)(=O)c2ccccc2)cc2c3c(cccc13)CC2
inactive: [14] 97 % of control | [16] 93 % of control | [23] 101 % of control

Cc1cc(C)c(F)[c]([Hg][Br])c1N
inactive: dose: 12.5 mg/kg/injection, schedule: Q01DX009 (ip), vehicle: Klucel (hydroxypropylcellulose) (HPC) 96 % of control | dose: 37.5 mg/kg/injection, schedule: Q01DX001 (ip), vehicle: Klucel (hydroxypropylcellulose) (HPC) 94 % of control | [1] 96 % of control | dose: 100.0 mg/kg/injection, schedule: Q01DX009 (ip), vehicle: Klucel (hydroxypropylcellulose) (HPC) 89 % of control
